Source: patent publication US20080255134A1 (Artesian Therapeutics, Inc., priority 2004, published 2008)
Where two headings read alike, the source gives them in different places.

What was measured:
[1] = system: White New Zealand male rabbits; assay: In vivo β-adrenergic blockade, isoproterenol challenge (Protocol 1); set-up: species or system rabbit
Description: (§1) Studies were performed on White New Zealand male rabbits (2-3 kg weight). Animals were initially anesthetized with ketamine (50 mg/kg; IM) and xylazine (6 mg/kg, IM). Subsequently, animals were intubated (via tracheotomy; 3 mm tube) and ventilated with 2% isoflurane (mixed in 95% O2+5% CO2). Each rabbit was instrumented for LV pressure (3F Millar catheter) through right carotid artery, arterial pressure (3F catheter, Cook Instruments) through left femoral artery, which was connected to a fluid-filled pressure transducer (BD Instruments), and ECG. Both pressure transducers were zeroed against atmospheric pressure, and calibrated before each study using an analog manometer. Upon completion of instrumentation, isoflurane was reduced to 1.25%, and the animal was covered for maintenance of body core temperature. Arterial and LV blood pressures (LVP) and the ECG signals were simultaneously digitally recorded on a PC. The recording system (Gould Instruments) and the corresponding software (Ponema, Gould Instruments) facilitated detailed calculation of various parameters directly from all signals and record on a separate file with a 1 sec resolution. Upon completion of the study protocol, rabbits were euthenized by isoflurane overdose (5% for at least 1 minute) and cardiac arrest through IV infusion of 5 ml 3 molar potassium chloride.
(§2) Once the physiological variables were stable, effects of each drug on hemodynamics and ECG were determined based on two different protocols: 1) infusion of a compound of the present invention to determine the effects of the compound itself mainly on contractility, and other hemodynamic indices; and 2) infusion of a compound of the present invention while the system was challenged with 0.5 ug/kg isoproterenol to determine the beta-adrenergic antagonism properties of each tested compound.
(§3) White New Zealand male rabbits (2-3 kg) were anesthetized and ventilated (95% O2+5% CO2) with 1.25% isoflurane. Each animal was instrumented for LV pressure (Millar, through left carotid artery), arterial pressure (left femoral artery), infusion (jugular vein), and electrocardiogram. The animals were administered intravenously based on one of these protocols:
Protocol 1: β-adrenergic blockade (isoproterenol challenge).

[2] = molecular target: beta-receptors from rat cortical membranes; assay: Non-specific β-receptor radioligand binding, [3H]DHA; settings: read-out: Non-selective β-adrenergic IC50
Description: (§4) Non-selective β-adrenergic and β1-adrenergic radioligand binding assays were performed using rat cortical membranes; β2-adrenergic receptor assays were performed using membranes isolated from CHO cells expressing human, recombinant b2-adrenergic receptor; non-selective α1-adrenergic receptor assays were performed using rat forebrain membranes; and PDE3 binding assays were performed on human platelets. Values in percent illustrate percent inhibition at 1000 nM concentration.

α1-adrenergic receptor = assay: Non-selective α1-adrenergic receptor assay using rat forebrain membranes; assay type: binding
Description: as §4, with “The ability of Compounds 25 and 8c to inhibit PDE3 and β-adrenergic receptor activity was examined both in vitro and in vivo. […] Non-selective” for “Non-selective”

[3] = system: White New Zealand male rabbits; assay: In vivo β-adrenergic blockade, isoproterenol challenge (Protocol 1); set-up: species or system rabbit; dose or concentration left out as unconfirmed; settings: during isoproterenol challenge, intravenous, FIG. 10
[4] = molecular target: T1, human recombinant beta-1 receptors (Homo sapiens, UniProt P08588); assay: β1-receptor radioligand binding, [125I] iodocyanopindolol, CHO-REX16 cells; settings: at 100 nM
T1 construct: expressed in transfected cells; host or cells: CHO-REX16 cells
T1 sequence (P08588 whole entry): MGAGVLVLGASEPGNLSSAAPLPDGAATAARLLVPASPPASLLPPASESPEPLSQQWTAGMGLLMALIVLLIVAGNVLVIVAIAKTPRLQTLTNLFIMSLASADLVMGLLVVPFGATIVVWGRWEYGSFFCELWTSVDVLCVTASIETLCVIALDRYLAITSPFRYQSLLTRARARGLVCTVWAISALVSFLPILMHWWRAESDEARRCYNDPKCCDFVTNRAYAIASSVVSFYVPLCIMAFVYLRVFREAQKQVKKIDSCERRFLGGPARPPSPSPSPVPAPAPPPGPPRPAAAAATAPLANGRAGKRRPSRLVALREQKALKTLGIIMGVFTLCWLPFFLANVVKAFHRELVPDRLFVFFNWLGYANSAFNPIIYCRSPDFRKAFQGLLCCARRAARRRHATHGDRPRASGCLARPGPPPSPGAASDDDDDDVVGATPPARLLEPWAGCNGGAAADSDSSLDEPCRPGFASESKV
Description: […] receptor binding was measured in human recombinant beta-1 receptors expressed in CHO-REX16 cells, using [^125I] (-) iodocyanopindolol (2000 Ci/mmol) as the radioligand, as described in Kalaria et al., J. Neurochem. 53: 1772-81 (1998), and Minneman et al., Mol. Pharmacol. 16: 34-46 (1979).

PDE3 = molecular target: T2, PDE3 (Homo sapiens, UniProt Q14432); assay: In vitro assay for cAMP PDE-3 inhibitory activity; assay type: biochemical
T2 construct: from tissue; host or cells: human platelets
T2 sequence (Q14432 whole entry): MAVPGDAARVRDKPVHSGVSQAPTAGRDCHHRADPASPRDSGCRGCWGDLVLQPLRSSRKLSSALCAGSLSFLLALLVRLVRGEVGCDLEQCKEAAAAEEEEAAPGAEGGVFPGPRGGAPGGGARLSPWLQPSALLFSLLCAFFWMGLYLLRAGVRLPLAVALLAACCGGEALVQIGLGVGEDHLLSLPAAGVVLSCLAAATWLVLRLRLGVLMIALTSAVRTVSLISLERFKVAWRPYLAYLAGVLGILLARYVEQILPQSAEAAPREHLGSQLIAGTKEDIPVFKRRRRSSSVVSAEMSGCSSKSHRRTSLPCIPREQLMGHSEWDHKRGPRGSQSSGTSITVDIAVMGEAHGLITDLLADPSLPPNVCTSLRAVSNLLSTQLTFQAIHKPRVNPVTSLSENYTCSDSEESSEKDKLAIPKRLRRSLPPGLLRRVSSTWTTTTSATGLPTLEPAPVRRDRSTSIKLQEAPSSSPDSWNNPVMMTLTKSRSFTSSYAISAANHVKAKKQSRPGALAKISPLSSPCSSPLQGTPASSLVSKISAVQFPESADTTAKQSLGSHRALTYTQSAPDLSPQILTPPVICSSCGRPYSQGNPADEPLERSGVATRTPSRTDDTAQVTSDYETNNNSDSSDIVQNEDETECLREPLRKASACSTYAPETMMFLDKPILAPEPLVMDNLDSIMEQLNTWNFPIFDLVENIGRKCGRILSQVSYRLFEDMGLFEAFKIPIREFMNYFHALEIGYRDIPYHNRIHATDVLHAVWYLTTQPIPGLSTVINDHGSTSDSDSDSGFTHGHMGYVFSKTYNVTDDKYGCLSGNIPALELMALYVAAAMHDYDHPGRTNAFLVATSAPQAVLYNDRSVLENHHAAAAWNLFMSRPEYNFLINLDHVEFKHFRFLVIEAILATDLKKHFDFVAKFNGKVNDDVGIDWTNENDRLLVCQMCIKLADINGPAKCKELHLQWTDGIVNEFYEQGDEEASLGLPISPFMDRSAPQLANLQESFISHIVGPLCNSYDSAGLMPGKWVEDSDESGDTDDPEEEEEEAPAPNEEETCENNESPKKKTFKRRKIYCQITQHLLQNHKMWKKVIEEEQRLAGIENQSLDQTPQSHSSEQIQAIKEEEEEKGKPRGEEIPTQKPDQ
Description: Human platelet cyclic AMP phosphodiesterase was prepared according to the method of Alvarez et al., Mol. Pharmacol. 29: 554 (1986). The PDE incubation medium contained 10 mM Tris-HCl buffer, pH 7.7, 10 mM MgSO4, and 1 μM […] (0.2 μCi) in a total volume of 1.0 mL. Test compounds were dissolved in DMSO immediately prior to addition to the incubation medium, and the resulting mixture was allowed to stand for 10 minutes prior to the addition of enzyme. Following the addition of PDE, the contents were mixed and incubated for 10 minutes at 30° C. Three assays each were performed for each of five test compound concentrations, the mean of the determinations (n=3) at each concentration was plotted, and IC50 values were determined graphically.
as §4, with “The ability of Compounds 25 and 8c to inhibit PDE3 and β-adrenergic receptor activity was examined both in vitro and in vivo. […] Non-selective” for “Non-selective”

[5] = system: White New Zealand male rabbits; assay: In vivo hemodynamic effects of compounds administered alone (Protocol 2); set-up: species or system rabbit
Description: as §1, §2, §3
Protocol 2: PDE3 inhibition (effects of compounds when administered alone).

[6] = molecular target: T3, human recombinant beta-2 receptors (Homo sapiens, UniProt P07550); assay: β2-receptor radioligand binding, [125I] iodocyanopindolol, CHO-WT21 cells
T3 construct: expressed in transfected cells; host or cells: CHO-WT21 cells
T3 sequence (P07550 whole entry): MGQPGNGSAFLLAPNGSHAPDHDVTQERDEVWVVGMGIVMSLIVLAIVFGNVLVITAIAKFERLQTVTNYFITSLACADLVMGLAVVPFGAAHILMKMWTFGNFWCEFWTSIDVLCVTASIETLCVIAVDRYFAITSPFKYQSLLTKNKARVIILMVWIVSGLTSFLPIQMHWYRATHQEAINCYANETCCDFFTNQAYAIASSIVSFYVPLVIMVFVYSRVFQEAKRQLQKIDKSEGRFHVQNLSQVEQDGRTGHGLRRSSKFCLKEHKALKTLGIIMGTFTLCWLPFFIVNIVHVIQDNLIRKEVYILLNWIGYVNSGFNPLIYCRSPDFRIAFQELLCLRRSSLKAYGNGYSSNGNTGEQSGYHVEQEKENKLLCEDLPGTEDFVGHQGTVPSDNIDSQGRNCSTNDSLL
Description: as §4

β1-adrenergic receptor = molecular target: T4, β1-adrenergic receptor (Rattus norvegicus, UniProt P18090); assay: β1-adrenergic radioligand binding assay using rat cortical membranes
T4 construct: from tissue; host or cells: rat cortical membranes
T4 sequence (P18090 whole entry): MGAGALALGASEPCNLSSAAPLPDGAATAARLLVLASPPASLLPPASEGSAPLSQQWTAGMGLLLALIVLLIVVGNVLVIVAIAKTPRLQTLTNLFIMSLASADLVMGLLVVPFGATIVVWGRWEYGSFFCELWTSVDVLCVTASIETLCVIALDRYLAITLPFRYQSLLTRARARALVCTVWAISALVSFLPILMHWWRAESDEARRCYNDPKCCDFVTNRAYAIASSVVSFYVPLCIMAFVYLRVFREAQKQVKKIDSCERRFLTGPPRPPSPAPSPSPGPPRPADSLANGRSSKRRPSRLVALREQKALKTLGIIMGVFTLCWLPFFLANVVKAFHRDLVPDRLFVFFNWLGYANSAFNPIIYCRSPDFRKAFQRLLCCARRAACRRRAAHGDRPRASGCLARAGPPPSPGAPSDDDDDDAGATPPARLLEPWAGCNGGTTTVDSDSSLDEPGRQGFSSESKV
Description: as §4

[7] = system: human fetal cardiac fibroblasts; assay: Cyclic-AMP production by fluorescence (intrinsic sympathomimetic activity); assay type: cell-based; settings: IBMX (750 μM) present; compared to isoproterenol or forskolin; any concentration tested
Description: The effect of Compound 8c on cyclic-AMP production was determined in human fetal cardiac fibroblasts by fluorescence, presented in FIG. 18 as [F−Fo)/Fo], mean±SEM, N=4. IBMX (750 μM) was present in all assays.

[8] = system: isolated ventricular myocytes; assay: Sarcomere shortening (contractility) in isolated ventricular myocytes; assay type: cell-based, rabbit
Description: […] Isoproterenol, a potent β-Adrenergic agonist, can produce large increases in cardiac contraction, calcium transient amplitude, and the rates of relaxation (acceleration of relaxation or lusitropic effect). The effects of isoproterenol are then antagonized with different concentrations of a compound of the present invention.
Cardiac myocytes were digested from healthy white New Zealand male rabbits (3-5 lbs), with enzymatic digestion. Briefly, each animal is anesthetized with ketamine (50 mg/kg) and xylazine (6 mg/kg)-IM injection in hind limb. Once the animal was sedated (˜10-15 min), 0.1-0.3 ml of pentobarbital was injected into the ear vein. The heart was exposed by a cut just below the rib-cage and bilateral thoracotomy and removed rapidly ensuring that aorta remains intact. The heart was immediately placed in oxygenated NT with Ca^2+ placed on ice for rinsing the blood out, cleared from vessels and pericardium, cannulated and maintained at 37° C. The heart was retrogradedly perfused and tissue digested with collagenase and protease. Digested myocytes were subsequently stored in 0.1 mM Ca^2+ normal tyrodes for further analyses. Sarcomere length changes upon treatment with test compounds were recorded at 37° C. in the presence of 2 mM calcium and analyzed with an IonOptix system. Sarcomere length data was acquired for each myocyte over an average of 10 beats duration, at pacing rates of 1, 2, and 3 Hz. Basal percent sarcomere shortening and length-frequency relation of each myocyte was evaluated, and serve as a measure of cellular viability.
In vitro studies were performed using rabbit ventricular tissue, to examine the effects of Compounds 25 and 8c on myocyte contractility. New Zealand male rabbits (1.5-2.5 kg) were anesthetized with ketamine (50 mg/kg) and xylazine (6 mg/kg)-IM. The heart was exposed and removed rapidly to ensure that the aorta remained intact. The ventricular tissue was digested enzymatically. Sarcomere shortening was measured in the presence of 2 mM calcium at 37° C. using an IonOptix system; reported values were at 2 Hz pacing frequency.

IC50 [2]: 14 nM | IC50 (α1-adrenergic receptor): 226 nM | inhibition at 0.1 µM [4]: > 25% | IC50 (PDE3; human platelet cyclic AMP phosphodiesterase, bound stated, read-out: PDE3 inhibition IC50): < 1000 nM | IC50 (PDE3; human platelets, read-out: PDE3 IC50): 150 nM | inhibition at 0.1 µM ([6]; at 100 nM): > 25% | IC50 ([6]; membranes from CHO cells expressing human recombinant β2-adrenergic receptor): 0.8 nM | IC50 (β1-adrenergic receptor): 5 nM
Compound: O=C1CCC(c2ccc(OCC(=O)N3CCC(NC[C@H](O)COc4ccccc4Cl)CC3)c(Cl)c2)=NN1 [Compound 8c, 6-[3-Chloro-4-(2-{4-[3-(2-chloro-phenoxy)-2-hydroxy-propylamino]-piperidin-1-yl}-2-oxo-ethoxy)-phenyl]-4,5-dihydro-2H-pyridazin-3-one]
decrease of left ventricular contractility (% of isoproterenol effect) ([1]; doses that completely diminished isoproterenol-dependent increase in heart rate: atenolol 1 mg/kg, carvedilol 0.3 mg/kg, Compound 8c 1 mg/kg, mean±SEM): 73±4% | β-adrenergic antagonism on heart rate (HR) ([1]; during isoproterenol challenge (0.5 μg/kg), FIG. 11): dose-dependent β-adrenergic antagonism | β-adrenergic antagonism on left ventricular contractility [3]: potent dose-dependent β-adrenergic antagonism | heart rate when administered alone ([5]; Protocol 2, with and without atropine and bilateral vagotomy (FIG. 16)): did not increase heart rate | mean arterial pressure ([5]; doses that completely diminished isoproterenol-dependent increase in heart rate, Protocol 2, FIG. 15): did not have a significant effect | left ventricular contractility when administered alone ([5]; protocol 2, relative to control, FIGS. 2, 12): increased or maintained contractility in a dose-dependent manner | intrinsic sympathomimetic activity (cyclic-AMP production) [7]: did not possess intrinsic sympathomimetic activity | blocking of isoproterenol effect on myocyte contractility ([8]; 0.1 μM isoproterenol (not shown)): blocking the effects of 0.1 mM isoproterenol | contractility (sarcomere shortening) in isolated ventricular myocytes ([8]; 2 mM calcium, 37° C., 2 Hz pacing frequency): increased contractility
